Results: patent publication US8236808B2, “Pyrazine derivatives as ENAC blockers” (Novartis AG, priority 2008, dated 2012)
pIC50: −log10 of the molar value.

Molecular target: T1, epithelial sodium channel (ENaC) (Homo sapiens, UniProt P37088+P51168+P51170)
T1 construct: host or cells: primary human bronchial epithelial cells (HBECs), differentiated at the air-liquid interface
T1 sequence (P37088 1-669): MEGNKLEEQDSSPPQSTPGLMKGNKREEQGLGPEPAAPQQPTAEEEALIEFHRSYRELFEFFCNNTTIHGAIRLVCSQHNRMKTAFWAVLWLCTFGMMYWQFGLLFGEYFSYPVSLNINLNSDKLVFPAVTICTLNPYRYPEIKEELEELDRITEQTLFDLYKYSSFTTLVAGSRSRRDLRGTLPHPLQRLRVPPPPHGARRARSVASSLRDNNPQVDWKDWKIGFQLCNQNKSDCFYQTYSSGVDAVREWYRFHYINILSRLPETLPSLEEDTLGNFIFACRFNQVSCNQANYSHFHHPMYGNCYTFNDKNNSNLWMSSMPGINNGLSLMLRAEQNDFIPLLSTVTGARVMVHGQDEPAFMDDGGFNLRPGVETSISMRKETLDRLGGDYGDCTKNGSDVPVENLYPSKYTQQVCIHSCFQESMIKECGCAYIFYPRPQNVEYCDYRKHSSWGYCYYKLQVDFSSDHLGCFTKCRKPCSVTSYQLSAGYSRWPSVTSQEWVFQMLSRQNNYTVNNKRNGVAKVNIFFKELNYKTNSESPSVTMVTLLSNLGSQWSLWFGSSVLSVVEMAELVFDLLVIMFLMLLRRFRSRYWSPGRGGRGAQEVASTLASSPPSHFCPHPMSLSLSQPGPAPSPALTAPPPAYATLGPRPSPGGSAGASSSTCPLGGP
T1 sequence (P51168 1-640): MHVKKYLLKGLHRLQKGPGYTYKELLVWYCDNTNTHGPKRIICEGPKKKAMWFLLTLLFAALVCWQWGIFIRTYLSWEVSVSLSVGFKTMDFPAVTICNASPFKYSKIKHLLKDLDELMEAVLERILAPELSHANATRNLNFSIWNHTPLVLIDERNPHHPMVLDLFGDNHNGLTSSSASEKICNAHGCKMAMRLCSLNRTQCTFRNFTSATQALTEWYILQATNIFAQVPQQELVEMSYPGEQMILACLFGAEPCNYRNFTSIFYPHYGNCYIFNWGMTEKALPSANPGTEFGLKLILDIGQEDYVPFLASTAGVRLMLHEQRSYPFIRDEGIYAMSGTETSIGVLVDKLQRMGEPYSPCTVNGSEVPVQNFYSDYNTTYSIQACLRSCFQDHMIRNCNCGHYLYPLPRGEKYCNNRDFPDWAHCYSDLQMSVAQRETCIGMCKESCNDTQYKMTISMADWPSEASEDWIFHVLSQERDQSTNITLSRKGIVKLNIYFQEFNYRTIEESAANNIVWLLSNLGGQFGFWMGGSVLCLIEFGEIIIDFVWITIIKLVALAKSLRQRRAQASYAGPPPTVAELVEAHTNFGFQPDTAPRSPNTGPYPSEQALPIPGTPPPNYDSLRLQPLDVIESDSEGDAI
T1 sequence (P51170 1-649): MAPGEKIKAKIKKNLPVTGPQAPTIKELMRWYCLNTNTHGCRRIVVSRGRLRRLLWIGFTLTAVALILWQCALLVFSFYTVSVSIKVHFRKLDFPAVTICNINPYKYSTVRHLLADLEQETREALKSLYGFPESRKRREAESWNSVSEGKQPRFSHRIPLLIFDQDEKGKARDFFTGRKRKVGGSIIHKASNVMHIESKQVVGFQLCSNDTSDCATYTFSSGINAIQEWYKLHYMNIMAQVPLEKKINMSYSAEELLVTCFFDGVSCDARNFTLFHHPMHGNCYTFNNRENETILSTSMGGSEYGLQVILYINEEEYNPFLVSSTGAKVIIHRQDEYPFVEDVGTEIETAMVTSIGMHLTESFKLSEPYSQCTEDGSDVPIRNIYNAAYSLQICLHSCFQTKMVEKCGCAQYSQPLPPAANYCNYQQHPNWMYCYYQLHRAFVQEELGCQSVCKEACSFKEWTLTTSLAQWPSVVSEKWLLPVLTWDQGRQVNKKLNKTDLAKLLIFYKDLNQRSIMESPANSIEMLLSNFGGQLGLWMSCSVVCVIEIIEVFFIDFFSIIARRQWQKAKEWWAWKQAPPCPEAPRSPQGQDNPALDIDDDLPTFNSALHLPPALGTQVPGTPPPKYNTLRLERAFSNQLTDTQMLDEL
Test: Short circuit current (ISC) measurements in human bronchial epithelial cells, inhibition of amiloride-sensitive ISC
Type: cell-based
Conditions: inhibition of the amiloride-sensitive ISC; HBECs cultured at air-liquid interface, Ussing chamber, compound added to apical chamber
Protocol: Compounds of formula (I), hereinafter referred to alternatively as “agents of the invention”, are useful as pharmaceuticals. In particular, the compounds have good ENaC blocker activity and may be tested in the following assays.
Human Bronchial Epithelial cells (HBECs) (Cambrex) were cultured under air-liquid interface conditions to provide a well differentiated mucociliary phenotype.
HBECs were cultured using a modification of the method described by Gray and colleagues (Gray et al., 1996). Cells were seeded in plastic T-162 flasks and were grown in bronchial epithelial cell growth medium (BEGM; Cambrex) supplemented with bovine pituitary extract (52 μg/mL), hydrocortisone (0.5 μg/mL), human recombinant epidermal growth factor (0.5 ng/mL), epinephrine (0.5 μg/mL), transferrin (10 μg/mL), insulin (5 μg/mL), retinoic acid (0.1 μg/mL), triiodothyronine ([…]), gentamycin (50 μg/mL) and amphotericin B (50 ng/mL). Medium was changed every 48 hours until cells were 90% confluent. Cells were then passaged and seeded (8.25×10^5 cells/insert) on polycarbonate Snapwell inserts (Costar) in differentiation media containing 50% DMEM in BEGM with the same supplements as above but without triiodothyronine and a final retinoic acid concentration of 50 nM (all-trans retinoic acid). Cells were maintained submerged for the first 7 days in culture, after which time they were exposed to an apical air interface for the remainder of the culture period. At this time, media was changed to DMEM:F12 media containing 2% v/v Ultroser G for the remainder of culture. Amphotericin B was removed from all media 3 feeds prior to use in the Ussing Chambers. Cells were used between days 7 and 21 after establishment of the apical-air interface. At all stages of culture, cells were maintained at 37° C. in 5% CO2 in an air incubator.
Snapwell inserts were mounted in Vertical Diffusion Chambers (Costar) and were bathed with continuously gassed Ringer solution (5% CO2 in O2; pH 7.4) maintained at 37° C. containing (in mM): 120 NaCl, 25 NaHCO3, 3.3 KH2PO4, 0.8 K2HPO4, 1.2 CaCl2, 1.2 MgCl2, and 10 glucose. The solution osmolarity was between 280 and 300 mOsmol/kg H2O for all physiological salt solutions used. Cells were voltage clamped to 0 mV (model EVC4000; WPI). RT was measured by applying a 1- or 2-mV pulse at 30-s intervals and calculating RT by Ohm's law. Data were recorded using a PowerLab workstation (ADInstruments).
Test compounds were prepared as a 10 mM stock solution in DMSO (95%). Serial 3-fold dilutions were freshly prepared in an appropriate vehicle (distilled H2O or Ringers solution). The initial concentration was added to the apical chamber as a 1000× concentrate in 5 μL, resulting in a final 1× concentration the 5 mL volume of the Ussing chamber. Subsequent additions of compound were added in a 3.3 μL volume of the 1000× serially diluted stock solution. At the completion of the concentration-response experiment, amiloride (10 μM) was added into the apical chamber to enable the total amiloride-sensitive current to be measured. An amiloride control IC50 was established at the start of each experiment.
Results are expressed as the mean % inhibition of the amiloride-sensitive ISC. Concentration-response curves were plotted and IC50 values generated using GraphPad Prism 3.02. Cell inserts were typically run in duplicate and the IC50 calculated on the mean % inhibition data.

pIC50	SMILES
6.85	C[N+](C)(CCNC(=O)CCc1ccccc1)CCNC(=O)c1nc(Cl)c(N)nc1N [Example 30, {2-[(3,5-Diamino-6-chloro-pyrazine-2-carbonyl)-amino]-ethyl}-dimethyl-2-[(3-phenyl-propionylamino)-ethyl]-ammonium hexafluorophosphate]
6.39	COc1ccc2c(c1)CCCC2CC(=O)NCC[N+](C)(C)CCNC(=O)c1nc(Cl)c(N)nc1N (centres unmarked) [Example 35, {2-[(3,5-Diamino-6-chloro-pyrazine-2-carbonyl)-amino]ethyl}-{2-[2-(6-methoxy-1,2,3,4-tetrahydro-naphthalen-1-yl)-acetylamino]-ethyl}-dimethyl-ammonium hexafluorophosphate]
6.22	C[N+](C)(CCCNC(=O)Cc1ccccc1)CCNC(=O)c1nc(Cl)c(N)nc1N [Example 53, {2-[(3,5-Diamino-6-chloro-pyrazine-2-carbonyl)-amino]-ethyl}-dimethyl-(3-phenylacetylamino-propyl)-ammonium hexafluorophosphate]
6.82	C[N+](C)(CCCCNC(=O)CCc1ccc(Cl)cc1)CCNC(=O)c1nc(Cl)c(N)nc1N [Example 65, {4-[3-(4-Chloro-phenyl)-propionylamino]-butyl}-{2-[(3,5-diamino-6-chloro-pyrazine-2-carbonyl)-amino]-ethyl}-dimethyl-ammonium hexafluorophosphate]
7.21	C[N+](C)(CCCCCNC(=O)Cc1ccc(OCc2ccccc2)cc1)CCNC(=O)c1nc(Cl)c(N)nc1N [Example 78, {5-[2-(4-Benzyloxy-phenyl)-acetylamino]-pentyl}-{2-[(3,5-diamino-6-chloro-pyrazine-2-carbonyl)-amino]-ethyl}-dimethyl-ammonium bromide]
6.60	C[N+](C)(CCCCCNS(=O)(=O)c1ccc(Cl)cc1)CCNC(=O)c1nc(Cl)c(N)nc1N [Example 94, [5-(4-Chloro-benzenesulfonylamino)-pentyl]-{2-[(3,5-diamino-6-chloro-pyrazine-2-carbonyl)-amino]-ethyl}-dimethyl-ammonium bromide]

Second part, the compound before the results:

SMILES	pIC50
CCOc1ccc(NC(=O)NCCCC[N+](C)(CCCc2ccc(OC)cc2)CCNC(=O)c2nc(Cl)c(N)nc2N)cc1Cl (centres unmarked) [Example 26, {4-[3-(3-Chloro-4-ethoxy-phenyl)-ureido]-butyl}-{2-[(3,5-diamino-6-chloro-pyrazine-2-carbonyl)-amino]-ethyl}-[3-(4-methoxy-phenyl)-propyl]-methyl-ammonium bromide]	7.92
COc1ccc(CCC[N+](C)(C)CCNC(=O)c2nc(Cl)c(N)nc2N)cc1 [Example 27, {2-[(3,5-diamino-6-chloro-pyrazine-2-carbonyl)-amino]-ethyl}-[3-(4-methoxy-phenyl)-propyl]-dimethyl-ammonium bromide]	6.66
C[N+](C)(CCCc1ccc(OCCCc2ccc(OC[C@@H](O)CO)cc2)cc1)CCNC(=O)c1nc(Cl)c(N)nc1N [Example 29, {2-[(3,5-Diamino-6-chloro-pyrazine-2-carbonyl)-amino]-ethyl}-[3-(4-{3-[4-((S)-2,3-dihydroxy-propoxy)-phenyl]-propoxy}-phenyl)-propyl]-dimethyl-ammonium bromide]	7.60
C[N+](C)(CCNC(=O)CCc1ccc(Cl)cc1)CCNC(=O)c1nc(Cl)c(N)nc1N [Example 33, {2-[3-(4-Chloro-phenyl)-propionylamino]-ethyl}-{2-[(3,5-diamino-6-chloro-pyrazine-2-carbonyl)-amino]-ethyl}-dimethyl-ammonium hexafluorophosphate]	6.82
C[N+](C)(CCNC(=O)CCc1ccc(F)cc1)CCNC(=O)c1nc(Cl)c(N)nc1N [Example 38, {2-[(3,5-Diamino-6-chloro-pyrazine-2-carbonyl)-amino]-ethyl}-{2-[3-(4-fluoro-phenyl)-propionylamino]-ethyl}-dimethyl-ammonium hexafluorophosphate]	6.09
C[N+](C)(CCCNC(=O)Cc1ccc(OCc2ccccc2)cc1)CCNC(=O)c1nc(Cl)c(N)nc1N [Example 50, {3-[2-(4-Benzyloxy-phenyl)-acetylamino]-propyl}-{2-[(3,5-diamino-6-chloro-pyrazine-2-carbonyl)-amino]-ethyl}-dimethyl-ammonium bromide]	6.62
C[N+](C)(CCCNC(=O)Cc1ccc(Cl)cc1)CCNC(=O)c1nc(Cl)c(N)nc1N [Example 51, {3-[2-(4-Chloro-phenyl)-acetylamino]-propyl}-{2-[(3,5-diamino-6-chloro-pyrazine-2-carbonyl)-amino]-ethyl}-dimethyl-ammonium hexafluorophosphate]	6.38
C[N+](C)(CCCCNC(=O)Cc1ccc(OCc2ccccc2)cc1)CCNC(=O)c1nc(Cl)c(N)nc1N [Example 63, {4-[2-(4-Benzyloxy-phenyl)-acetylamino]-butyl}-{2-[(3,5-diamino-6-chloro-pyrazine-2-carbonyl)-amino]-ethyl}-dimethyl-ammonium bromide]	7.37
